Results: ChEMBL document CHEMBL1201862, “PubChem BioAssay data set” (2004)
Where “and” joins values, the source holds several entries; their conditions need not be identical. Equal entries are not always repeated.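 In this assay, cells in 96-well plates receive the compound at five concentrations for 48 hours. Endpoints are linearly interpolated between the surrounding concentrations. GI50 marks 50% less growth.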 Calls of active or inactive are those of the source. Cut-off read from the data, not from the text of the source: active = GI50 up to about 1.1 µM and inactive = higher.

Legend:
Test in all cases: growth of human tumour cells (NCI), 48 h
K562 = tested on: K562
ACHN = tested on: ACHN
786-0 = tested on: 786-0
SF-295 = tested on: SF-295
OVCAR-5 = tested on: OVCAR-5
OVCAR-3 = tested on: OVCAR-3
RXF 393 = tested on: RXF 393
MDA-N = tested on: MDA-N
CAKI-1 = tested on: CAKI-1
SK-MEL-2 = tested on: SK-MEL-2
SK-MEL-5 = tested on: SK-MEL-5
DU-145 = tested on: DU-145
SR = tested on: SR
HL-60 = tested on: HL-60
NCI-H23 = tested on: NCI-H23
NCI/ADR-RES = tested on: NCI/ADR-RES
TK-10 = tested on: TK-10
HCT-116 = tested on: HCT-116
U-251 = tested on: U-251
COLO 205 = tested on: COLO 205
PC-3 = tested on: PC-3
MOLT-4 = tested on: MOLT-4
RPMI-8226 = tested on: RPMI-8226
SF-268 = tested on: SF-268
BT-549 = tested on: BT-549
UACC-62 = tested on: UACC-62
EKVX = tested on: EKVX
SNB-19 = tested on: SNB-19
OVCAR-8 = tested on: OVCAR-8
MDA-MB-435 = tested on: MDA-MB-435
SN12C = tested on: SN12C
SW-620 = tested on: SW-620
CCRF-CEM = tested on: CCRF-CEM
SF-539 = tested on: SF-539
LOX IMVI = tested on: LOX IMVI
HT-29 = tested on: HT-29
HCT-15 = tested on: HCT-15
MCF7 = tested on: MCF7
NCI-H460 = tested on: NCI-H460
KM12 = tested on: KM12
M14 = tested on: M14
SK-MEL-28 = tested on: SK-MEL-28
UACC-257 = tested on: UACC-257
NCI-H226 = tested on: NCI-H226
IGROV-1 = tested on: IGROV-1
HOP-62 = tested on: HOP-62
MDA-MB-231 = tested on: MDA-MB-231
SK-OV-3 = tested on: SK-OV-3
A498 = tested on: A498
Hs-578T = tested on: Hs-578T
HOP-92 = tested on: HOP-92
A549 = tested on: A549
Malme-3M = tested on: Malme-3M
T47D = tested on: T47D
NCI-H522 = tested on: NCI-H522
SNB-75 = tested on: SNB-75
HCC 2998 = tested on: HCC 2998
OVCAR-4 = tested on: OVCAR-4
UO-31 = tested on: UO-31

Compound: Cn1c(=O)sc2cc(C(=S)N3CCC(Cc4ccccc4)CC3)ccc21
- GI50 (K562): 34.9 µM (inactive)
- GI50 (ACHN): > 100 µM (inactive)
- GI50 (786-0): > 100 µM (inactive)
- GI50 (SF-295): 27.3 µM (inactive)
- GI50 (OVCAR-5): > 100 µM (inactive)
- GI50 (OVCAR-3): 53.8 µM (inactive)
- GI50 (RXF 393): 21.6 µM (inactive)
- GI50 (MDA-N): 72.1 µM (inactive)
- GI50 (CAKI-1): 61.5 µM (inactive)
- GI50 (SK-MEL-2): > 100 µM (inactive)
- GI50 (SK-MEL-5): 26.9 µM (inactive)
- GI50 (DU-145): 84.5 µM (inactive)
- GI50 (SR): 17.7 µM (inactive)
- GI50 (HL-60): 22.5 µM (inactive)
- GI50 (NCI-H23): 44.7 µM (inactive)
- GI50 (NCI/ADR-RES): 21.4 µM (inactive)
- GI50 (TK-10): > 100 µM (inactive)
- GI50 (HCT-116): 45.9 µM (inactive)
- GI50 (U-251): 16.2 µM (inactive)
- GI50 (COLO 205): 83.2 µM (inactive)
- GI50 (PC-3): 37.9 µM (inactive)
- GI50 (MOLT-4): 20.9 µM (inactive)
- GI50 (RPMI-8226): 9.89 µM (inactive)
- GI50 (SF-268): 28.7 µM (inactive)
- GI50 (BT-549): 30.3 µM (inactive)
- GI50 (UACC-62): 61.5 µM (inactive)
- GI50 (EKVX): 9.42 µM (inactive)
- GI50 (SNB-19): > 100 µM (inactive)
- GI50 (OVCAR-8): 20.1 µM (inactive)
- GI50 (MDA-MB-435): 27.5 µM (inactive)
- GI50 (SN12C): > 100 µM (inactive)
- GI50 (SW-620): > 100 µM (inactive)
- GI50 (CCRF-CEM): 25.2 µM (inactive)
- GI50 (SF-539): > 100 µM (inactive)
- GI50 (LOX IMVI): 58.5 µM (inactive)
- GI50 (HT-29): 62.1 µM (inactive)
- GI50 (HCT-15): 99.5 µM
- GI50 (MCF7): 41.7 µM (inactive)
- GI50 (NCI-H460): 27.8 µM (inactive)
- GI50 (KM12): 34.7 µM (inactive)
- GI50 (M14): 33.3 µM (inactive)
- GI50 (SK-MEL-28): 46.6 µM (inactive)
- GI50 (UACC-257): 38.3 µM (inactive)
- GI50 (NCI-H226): 15.3 µM (inactive)
- GI50 (IGROV-1): 33.8 µM (inactive)
- GI50 (HOP-62): > 100 µM (inactive)
- GI50 (MDA-MB-231): > 100 µM (inactive)
- GI50 (SK-OV-3): 58.5 µM (inactive)
- GI50 (A498): > 100 µM (inactive)
- GI50 (Hs-578T): 21.4 µM (inactive)

Compound: COc1ccc(NC(C)=O)cc1N1C(=O)/C(=C\c2cccc(Oc3ccccc3)c2)SC1c1ccccc1 (configuration not stated)
- GI50 (K562): 19.8 µM (inactive)
- GI50 (ACHN): 31.3 µM (inactive)
- GI50 (786-0): 24.3 µM (inactive)
- GI50 (SF-295): 28.4 µM (inactive)
- GI50 (OVCAR-5): 29.3 µM (inactive)
- GI50 (OVCAR-3): 21.8 µM (inactive)
- GI50 (RXF 393): 39.7 µM (inactive)
- GI50 (HOP-92): 20.9 µM (inactive)
- GI50 (A549): 40.4 µM (inactive)
- GI50 (MDA-N): 26.2 µM (inactive)
- GI50 (CAKI-1): 28.4 µM (inactive)
- GI50 (Malme-3M): 65.6 µM (inactive)
- GI50 (SK-MEL-2): 30.5 µM (inactive)
- GI50 (SK-MEL-5): 30.5 µM (inactive)
- GI50 (DU-145): 35.3 µM (inactive)
- GI50 (SR): 3.7 µM (inactive)
- GI50 (HL-60): 16.9 µM (inactive)
- GI50 (NCI-H23): 46 µM (inactive)
- GI50 (NCI/ADR-RES): 19.2 µM (inactive)
- GI50 (TK-10): 49.3 µM (inactive)
- GI50 (T47D): 23.4 µM (inactive)
- GI50 (HCT-116): 11.6 µM (inactive)
- GI50 (U-251): 25.8 µM (inactive)
- GI50 (NCI-H522): 28.4 µM (inactive)
- GI50 (COLO 205): 19.4 µM (inactive)
- GI50 (PC-3): 21.7 µM (inactive)
- GI50 (MOLT-4): 10.1 µM (inactive)
- GI50 (RPMI-8226): 17.4 µM (inactive)
- GI50 (BT-549): 30.5 µM (inactive)
- GI50 (UACC-62): 26.7 µM (inactive)
- GI50 (EKVX): 33.3 µM (inactive)
- GI50 (SNB-19): 69.3 µM (inactive)
- GI50 (OVCAR-8): 22.5 µM (inactive)
- GI50 (SNB-75): 38.6 µM (inactive)
- GI50 (HCC 2998): 36.1 µM (inactive)
- GI50 (MDA-MB-435): 23.3 µM (inactive)
- GI50 (SN12C): 20.4 µM (inactive)
- GI50 (SW-620): 21.6 µM (inactive)
- GI50 (CCRF-CEM): 10.3 µM (inactive)
- GI50 (LOX IMVI): 13.4 µM (inactive)
- GI50 (HT-29): 18.3 µM (inactive)
- GI50 (HCT-15): 33.1 µM
- GI50 (MCF7): 23.8 µM (inactive)
- GI50 (OVCAR-4): 14.2 µM (inactive)
- GI50 (NCI-H460): 36.4 µM (inactive)
- GI50 (KM12): 37.6 µM (inactive)
- GI50 (M14): 34.1 µM (inactive)
- GI50 (SK-MEL-28): 28.3 µM (inactive)
- GI50 (UO-31): 17.3 µM (inactive)
- GI50 (UACC-257): 40.6 µM (inactive)
- GI50 (NCI-H226): 82.2 µM (inactive)
- GI50 (IGROV-1): 27.4 µM (inactive)
- GI50 (HOP-62): 34.3 µM (inactive)
- GI50 (MDA-MB-231): 37.8 µM (inactive)
- GI50 (SK-OV-3): 49 µM (inactive)
- GI50 (A498): 56.4 µM (inactive)

Compound: CCOC(=O)[C@]1(OC(C)=O)C[C@H](OC(C)=O)[C@@H](C(F)COP(=O)(OCc2ccccc2)OCc2ccccc2)O1 (some centres not stated)
- GI50 (K562): 71.4 µM (inactive)
- GI50 (HOP-92): 18.5 µM (inactive)
- GI50 (A549): > 100 µM (inactive)
- GI50 (MDA-N): > 100 µM (inactive)
- GI50 (CAKI-1): > 100 µM (inactive)
- GI50 (SK-MEL-5): > 100 µM (inactive)
- GI50 (DU-145): > 100 µM (inactive)
- GI50 (NCI/ADR-RES): > 100 µM (inactive)
- GI50 (PC-3): 32.4 µM (inactive) and 58.6 µM (inactive)
- GI50 (MOLT-4): > 100 µM (inactive)
- GI50 (RPMI-8226): 19.8 µM (inactive) and 25.9 µM (inactive)
- GI50 (SF-268): > 100 µM (inactive)
- GI50 (BT-549): > 100 µM (inactive)
- GI50 (OVCAR-8): > 100 µM (inactive)
- GI50 (SNB-75): > 100 µM (inactive)
- GI50 (HCC 2998): 76.2 µM (inactive)
- GI50 (SN12C): > 100 µM (inactive)
- GI50 (CCRF-CEM): 72.9 µM (inactive) and 49 µM (inactive)
- GI50 (SF-539): > 100 µM (inactive)
- GI50 (SK-MEL-28): > 100 µM (inactive)
- GI50 (UACC-257): 76.2 µM (inactive)
- GI50 (NCI-H226): > 100 µM (inactive)
- GI50 (HOP-62): > 100 µM (inactive)
- GI50 (MDA-MB-231): 57.3 µM (inactive)
- GI50 (SK-OV-3): > 100 µM (inactive)
- GI50 (Hs-578T): > 100 µM (inactive)
